The text below walks through data of patent US8513286B2, “Iminipyridine derivatives and their uses as microbiocides” (Syngenta Crop Protection LLC, priority 2007, dated 2013).

Holding throughout (assay type): in vivo
The subject of assay [1] is Botrytis cinerea. In words: Botrytis cinerea, gray mould, preventative test on bean leaf disks. The following applies: application rate 200 ppm, assessed 3 days after inoculation, 0=no control, 100%=complete control. On the procedure:
Botrytis cinerea: Gray Mould, Preventative Test Botrytis cinerea (Gray mould): Bean leaf disks are placed on agar in multiwell plates (24-well format) and sprayed with the formulated (2% Dimethylsulfoxid, 0,025% Tween 20) test solutions. After drying, the leaf disks are inoculated with a spore suspension of the fungus (60′000 conidia/ml). After appropriate incubation, the preventive fungicidal activity of a compound is assessed 3 days after inoculation as disease damage on the leaf disks and calculated as percent efficacy relative to untreated infected control. (0=no control of Botrytis cinerea, 100%=complete control). In this test, compounds listed in Table P above show good activity.

In assay [2] the test system is Erysiphe graminis f.sp. tritici. Put plainly: Erysiphe graminis f.sp. tritici, wheat powdery mildew, preventative test on wheat leaf segments. To be noted: Blumeria graminis, foliar, 168 h, application rate 200 ppm, assessed 7 days after inoculation, 0=no control, 100%=complete control, read-out: preventive fungicidal activity, percent efficacy relative to untreated infected control. As to the method:
Erysiphe graminis f.sp. tritici: Wheat Powdery Mildew, Preventative Test Erysiphe graminis f.sp. tritici (Wheat powdery mildew): Wheat leaf segments are placed on agar in multiwell plates (24-well format) and sprayed with the formulated (2% Dimethylsulfoxid, 0,025% Tween 20) test solutions. After drying, the leaf disks are inoculated with spores of the fungus (50 conidia/mm2). After appropriate incubation, the preventive fungicidal activity of a compound is assessed 7 days after inoculation as disease damage on the leaf disks and calculated as percent efficacy relative to untreated infected control. (0=no control of Erysiphe graminis f.sp. tritici, 100%=complete control). In this test, compounds listed in Table P above show good activity.

In assay [3] the test system is Puccinia recondita. Put plainly: Puccinia recondita, brown rust of wheat, preventative test on wheat leaf segments. To be noted: foliar, 192 h, application rate 200 ppm, assessed 8 days after inoculation, 0=no control, 100%=complete control, read-out: preventive fungicidal activity, percent efficacy relative to untreated infected control. As to the method: Puccinia recondite: Brown Rust of Wheat, Preventative Test Puccinia recondita (Brown rust): Wheat leaf segments are placed on agar in multiwell plates (24-well format) and sprayed with the formulated (2% Dimethylsulfoxid, 0,025% Tween 20) test solutions. After drying, the leaf disks are inoculated with a spore suspension of the fungus (45'000 conidia/ml). After appropriate incubation, the preventive fungicidal activity of a compound is assessed 8 days after inoculation as disease damage on the leaf disks and calculated as percent efficacy relative to untreated infected control (0=no control of Puccinia recondita, 100%=complete control). In this test, compounds listed in Table P above show good activity.

The subject of assay [4] is Puccinia recondita. Put plainly: Puccinia recondita, brown rust of wheat, curative test on wheat leaf segments. The following applies: foliar, 192 h, application rate 200 ppm, wheat leaf segments treated one day after inoculation, assessed 8 days after inoculation, 0=no control, 100%=complete control, read-out: curative fungicidal activity, percent efficacy relative to untreated infected control.

With `CCN(C)/C=N/c1cc(Br)c(Oc2ccc(Cl)c(C(F)(F)F)c2)nc1C` [P.29], the “preventive fungicidal activity, percent efficacy relative to untreated infected control” value in assay [1] was “at least 50%”. Further, the pest or weed control at 200 ppm in assay [2], in assay [3] and in assay [4] was no less than 50% in each case.
